This test concerns Candida. Put plainly: Antifungal activity against Candida at 100 ug/mL. The test is classed as functional, organism-based.

The values below come from ChEMBL document CHEMBL1146432, “Bengamides and Related New Amino Acid Derivatives from the New Caledonian Marine Sponge Jaspis carteri” (J Nat Prod, 1997).

Structures are written as SMILES. Active and inactive are the calls of the source. The rule behind the calls is not given here.

In the case of `CCCCCCCCCCCCCC(=O)O[C@H]1CC[C@H](NC=O)C(=O)N(C)C1`, the result was inactive.
As to `CCCCCCCCCCCCCCC(=O)O[C@H]1CC[C@H](NC(=O)[C@H](OC)[C@H](O)[C@@H](O)[C@H](O)/C=C/C(C)C)C(=O)N(C)C1`, the outcome was inactive.
As for `CCCCCCCCCCCCCC(=O)O[C@H]1CC[C@H](NC(=O)[C@H](OC)[C@H](O)[C@@H](O)[C@H](O)/C=C/C(C)C)C(=O)N(C)C1`, the entry is “inactive”.
For the compound `CCCCCCCCCCCCC(=O)O[C@H]1CC[C@H](NC(=O)[C@H](OC)[C@H](O)[C@@H](O)[C@H](O)/C=C/C(C)C)C(=O)N(C)C1`, the result was inactive.
For `CCCCCCCCCCCCCC(=O)O[C@H]1CC[C@H](NC(=O)[C@H](OC)[C@H](O)[C@@H](O)[C@H](O)/C=C/C(C)C)C(=O)NC1`, the outcome was inactive.
Then `CO[C@H]1C(=O)O[C@@H]([C@H](O)/C=C/C(C)C)[C@H]1O`, with “inactive”; and `CCCCCCCCCCCCCCC(=O)O[C@H]1CC[C@H](NC(=O)[C@H](OC)[C@H](O)[C@@H](O)[C@H](O)/C=C/C(C)C)C(=O)NC1`, with “inactive”.
As for `CCCCCCCCCCCCC(=O)O[C@H]1CC[C@H](NC(=O)[C@H](OC)[C@H](O)[C@@H](O)[C@H](O)/C=C/C(C)C)C(=O)NC1`, the entry is “inactive”.
